Tests used:
LAMP reaction [1] = assay: ProClin950 in BlisterBuffer, effect on LAMP reaction; assay type: biochemical; settings: added to BlisterBuffer
From the text: Additionally, we added ProClin950 a biozide to the BlisterBuffer in order to inhibit microbial growth.

target DNA = assay: Sample pre-treatment with antimicrobial peptides before isothermal amplification; settings: sample pre-treatment with peptide
LAMP reaction [2] = assay: Effect of antimicrobial peptides on the amplification (LAMP) reaction; assay type: biochemical
From the text: The use of peptides with higher concentrations may inhibit the amplification reaction in certain extent in comparison of ideal conditions, e.g. pure water (MQ). This is a drawback of use of peptides. However, not all the peptides have an equal effect.
This effect is explained by secondary property of peptides, which is an anti-inhibitory effect. Meaning, that in additionally to lysis effect, peptides also neutralizing inhibitory substances in real samples.

Compound	increase in isothermal amplification efficiency (target DNA)	other results
Cn1sccc1=O [ProClin950, 2-Methyl-4-isothiazolin-3-one]	–	inhibition of the LAMP reaction (LAMP reaction [1]): did not inhibit
CC[C@H](C)[C@H](NC(=O)CN)C(=O)NCC(=O)N[C@@H](C)C(=O)N[C@H](C(=O)N[C@@H](CC(C)C)C(=O)N[C@@H](CCCCN)C(=O)N[C@H](C(=O)N[C@@H](CC(C)C)C(=O)N[C@H](C(=O)N[C@H](C(=O)NCC(=O)N[C@@H](CC(C)C)C(=O)N1CCC[C@H]1C(=O)N[C@@H](C)C(=O)N[C@@H](CC(C)C)C(=O)N[C@H](C(=O)N[C@@H](CO)C(=O)N[C@@H](Cc1c[nH]c2ccccc12)C(=O)N[C@H](C(=O)N[C@@H](CCCCN)C(=O)N[C@@H](CCCNC(=N)N)C(=O)N[C@@H](CCCCN)C(=O)N[C@@H](CCCNC(=N)N)C(=O)N[C@@H](CCC(N)=O)C(=O)N[C@@H](CCC(N)=O)C(N)=O)[C@@H](C)CC)[C@@H](C)CC)[C@@H](C)O)[C@@H](C)O)C(C)C)C(C)C [melittin, Melittin]	did not give significant increase	–
Cecropin P1 (SWLSKTAKKLENSAKKRISEGIAIAIQGGPR; Cecropin P1; listed as Ascaris suum)	–	inhibitory effect on the amplification reaction (LAMP reaction [2]; among current selection of peptides, compared with pure water (MQ)): lowest inhibitory effect; effect on amplification in urinary sample (LAMP reaction [2]; in comparison of pure urinary sample): enhancing effect; increase of the target DNA available for the isothermal amplification (target DNA; on average): 6 times
MSI-78	did not give significant increase	–
MSI-594	did not give significant increase	–
bombolitin III	did not give significant increase	–
